According to EP4201929A1, “QUINOXALINE THIOREDOXIN REDUCTASE INHIBITORS” (geneXplain GmbH, priority 2021, dated 2023):

Tests used:
B16 melanoma = B16 melanoma mouse model; assay type: in vivo, C57BL/6 mice; details: 10mg/kg i.p. every other day for 9 days, day 8 and day 9, compared to vehicle-treated mice
Method: Animal experiments were approved by the regional ethics committee for animal research (N391/11 and N26/11), appointed and under the control of the Swedish Board of Agriculture and the Swedish Court. The animal experiments were in accordance with national regulations (SFS 1988:534, SFS 1988:539 and SFS 1988:541).
For the B16 melanoma mouse model, 6-weeks-old female C57BL/6 mice were injected subcutaneously with 1x10^6 B16 cells. When the tumors reached 80-120 mm^3, 10 mg/kg of 1d*HCl were administered intraperitoneally every other day for 9 days (days 1, 3, 5, 7, 9). Tumor volume was measured by caliper three times per week, and the volume was calculated based on the formula (in ml): L/10*W/10*W/10*0.44 (L=length, W=width of tumor). Mice were sacrificed when tumors reached 2 cm^3 or upon bleeding.
We tested the anti-tumor activity of 1d*HCl using allogenic model of B16 mice. We inoculated mice with B16 melanoma cells. When the tumors reached 100 mm^3, we treated them with i.p. injection of 1d*HCl, 10mg/kg every other day for 9 days. […] The differences in tumor volume between untreated control mice and animals treated with 1d*HCl are all statistically significant. Thus, 1d*HCl has in vivo anti-tumor activity in this animal tumor model.

[1] = test system: reactive oxygen species (ROS); assay: Oxidative stress measurement (DCFH-DA-based assay); assay type: cell-based
Method: Cells were treated with compounds and incubated 30 min with 10 µM DCF-DA in serum free medium. Afterward, cells were trypsinized, washed with PBS and fluorescence was analyzed by a FACSCalibur flow cytometer (BD Biosciences) using FL1-H channel.
To get insight into the mechanism of the anti-tumor activity of 1d*HCl, we tested the level of oxidative stress upon treatment. We measured the induction of reactive oxygen species (ROS), using 2'-7'-Dichlorodihydrofluorescein diacetate (DCFH-DA)-based assay. […] After 8h of treatment, the induction of reactive oxygen species (ROS) was much higher.

MCF7 cells = assay: Apoptosis detection by FACS (Annexin V staining); assay type: cell-based; details: 2 µM, 24h treatment
Method: Cells were placed on 12-well plate at a density of 30000/cm^2 and treated with compounds. After 24h incubation cells were harvested by trypsinization, fixed with 70% ethanol, treated with RNase A (0.25 mg/ml) and stained with Annexin V according to manufacturer's instructions (Thermo Fisher Scientific). Samples were analyzed on a Becton Dickinson FACScan. Data were analyzed by the CellQuest software, version 3.2.1.
To find out whether the growth suppression by 1d*HCl is due to triggering cell death by apoptosis, we performed the Annexin V-mediated staining of phosphatidylserine, exposed on surface of cells undergoing apoptotic cell death. We detected Annexin V-positive cells using FACS.

[2] = Growth suppression with selenium in culture medium; assay type: cell-based; details: selenium added to culture medium
From the text: To find out whether the inhibition of TrxRl is the major mechanism of action of 1d*HCl, we addressed the question, whether stimulation of TrxRl activity will decrease the growth suppression activity of 1d*HCl. Since TrxR is a selenium-containing enzyme and the concentration of selenium is rate-limiting for TrxRl, we added selenium to culture medium to test whether selenium will alleviate the growth suppression by 1d*HCl.

p53 = p53 induction by Western blot; assay type: cell-based; details: sign of DNA damage
Method: The extraction of total cell lysates and western blot were performed according to standard procedure. The antibodies used for immunoblotting were: p53 (sc-126, Santa Cruz Biotechnology), γH2AX (#07-164, Millipore), TrxRl 19A1 (AbFrontier). Anti-β-actin monoclonal antibody (Millipore) was used as loading control. The horseradish peroxidase-coupled secondary antibodies (Jackson ImmunoResearch) and SuperSignal™ West Dura Extended Duration Substrate detection system (Thermo Fischer Scientific), and images were visualized using ChemiDoc Imaging System (Bio-Rad).
The majority of chemotherapeutic drugs used currently in the clinic, are DNA damaging drugs. Induction of DNA damage is a very efficient way of elimination of cancer cells. Unfortunately, these drugs induce DNA damage also in normal cells, leading to severe side effects. We addressed the question whether 1d*HCl induces DNA damage. We tested this by detection of a hallmark of DNA damage, induction of phosphorylated histone H2AX, so called γH2AX. We used anti-yH2AX antibody to detect it in cells treated with 1d*HCl.

GR = GR (Homo sapiens, UniProt P00390); assay: GR enzymatic activity measurement in vitro; assay type: biochemical; set-up: purchased Sigma; details: recombinant purified enzyme in vitro
GR, sequence (P00390 44-522): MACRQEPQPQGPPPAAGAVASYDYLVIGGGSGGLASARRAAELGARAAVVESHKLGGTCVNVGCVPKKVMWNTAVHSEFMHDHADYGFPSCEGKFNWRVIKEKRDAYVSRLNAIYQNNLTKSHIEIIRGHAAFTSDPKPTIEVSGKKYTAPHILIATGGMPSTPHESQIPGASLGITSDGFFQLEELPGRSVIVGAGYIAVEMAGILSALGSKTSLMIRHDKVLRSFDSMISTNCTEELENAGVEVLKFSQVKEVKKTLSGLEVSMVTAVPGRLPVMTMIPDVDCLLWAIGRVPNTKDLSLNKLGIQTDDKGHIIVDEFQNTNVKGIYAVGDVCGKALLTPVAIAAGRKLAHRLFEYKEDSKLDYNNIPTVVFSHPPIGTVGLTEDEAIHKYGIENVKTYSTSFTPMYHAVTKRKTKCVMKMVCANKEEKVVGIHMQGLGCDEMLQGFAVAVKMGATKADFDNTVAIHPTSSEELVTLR
Method: TrxRl enzyme was recombinantly produced with high Sec contents in a specific Release Factor 1-depleted E. coli strain and purified as previously described (Arnér ESJ, Holmgren A, in Current Protocols in Toxicology, Maines M, Costa L, Reed D, Sassa S, Eds. (John Wiley & Sons, Inc., New York, 2000), pp. 7.4.1-7.4.14). TrxRl and GSR (Sigma) recombinant enzyme assays were performed in a reaction buffer containing 50 mM Tris pH 7.5 with 2 mM EDTA and 0.1 mg/mL bovine serum albumin as described previously (Arnér ESJ, Holmgren A, in Current Protocols in Toxicology, Maines M, Costa L, Reed D, Sassa S, Eds. (John Wiley & Sons, Inc., New York, 2000), pp. 7.4.1-7.4.14). Briefly, assays were performed in triplicate using 96-well plates, with activity inferred from absorbance changes using a Spectra Max plate reader. Results of recombinant enzyme assays were normalized to DMSO and to no enzyme controls.
Glutathione reductase inhibition assay was performed according to (S. Busker, W. Qian, M. Haraldsson, B. Espinosa, L. Johansson, S. Attarha, I. Kolosenko, J. Liu, M. Dagnell, D. Grandér, E.S.J. Arnér, K. PokrovskajaTamm, B.D.G. Page. Irreversible TrxRl inhibitors block STAT3 activity and induce cancer cell death, Sci. Adv., 6 (2020), 10.1126/sciadv.aax7945). 5 or 10 µM compound was incubated with 175 µM GSH in TE buffer. […]

For `Cl.N#Cc1c(-c2cccnc2)[n+]([O-])c2cc(F)c(N3CCOCC3)cc2[n+]1[O-]` [1d*HCl, 6-Fluoro-7-(morpholin-4-yl)-3-(pyridin-3-yl)quinoxaline-2-carbonitrile-1,4-dioxide hydrochloride], the tumor volume (B16 melanoma) was “lower volume of tumors”, the “DCF fluorescence (induction of reactive oxygen species)” value ([1]; 2h after treatment) was “significant increase in DCF fluorescence” and the “induction of reactive oxygen species (ROS)” value ([1]; after 8h of treatment) was “much higher”. For the same molecule, the “Annexin V-positive cells” value (MCF7 cells) was “induced Annexin V-positive cells statistically significantly”, the “growth suppression in the presence of selenium” value [2] was “less efficient” and the “induction of p53” value (p53) was “did not detect a significant induction of p53”. For the same molecule, the GR activity (GR) was “did not inhibit GR activity”.
